Measured values reported in patent publication US5968907A (priority 1997, dated 1999).

What follows are compounds tested against cholera toxin (Vibrio cholerae serotype O1, UniProt P01556) (assay: biochemical). Details: read-out: inhibition of binding of cholera toxin to ganglioside GD1b.
cholera toxin, sequence (P01556 22-124 limits assumed): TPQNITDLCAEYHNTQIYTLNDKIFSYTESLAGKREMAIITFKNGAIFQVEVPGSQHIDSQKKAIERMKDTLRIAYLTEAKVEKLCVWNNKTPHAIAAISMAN
`CC(O)CC(S[C@@H]1O[C@H](CO)[C@H](O)[C@H](O)[C@H]1O)c1ccccc1` (stereo partly drawn) [Example A3, 3-Hydroxy-1-phenylbut-1-yl 1-Thio-β-D-galactopyranoside] gave an inhibition at 1000 µg/mL of under 20%.
`CC1(C)CC(O)CC1S[C@@H]1O[C@H](CO)[C@H](O)[C@H](O)[C@H]1O` (stereo partly drawn) [Example A6, 2,2-Dimethyl-4-hydroxycyclopent-1-yl 1-Thio-β-D-galactopyranoside] showed an inhibition at 1000 µg/mL of under 20%.
`CC(O)CC(C)S[C@@H]1O[C@H](CO)[C@H](O)[C@H](O)[C@H]1O` (stereo partly drawn) [Example A8, 4Hydroxypent-2-yl 1-Thio-β-D-galactopyranoside] gave an inhibition at 1000 µg/mL of under 20%.
For `CC(N)CC(S[C@@H]1O[C@H](CO)[C@H](O)[C@H](O)[C@H]1O)c1ccccc1` (stereo partly drawn) [Example B3, 3-Amino-1-phenylbut-1-yl 1-Thio-β-D-galactopyranoside], the inhibition at 1000 µg/mL was under 20%.
`CC1(C)CC(N)CC1S[C@@H]1O[C@H](CO)[C@H](O)[C@H](O)[C@H]1O` (stereo partly drawn) [Example B6, 2,2-Dimethyl-4aminocyclopent-1-yl 1-Thio-β-D-galactopyranoside] showed an inhibition at 1000 µg/mL of at least 20%.
`CNC1CC(S[C@@H]2O[C@H](CO)[C@H](O)[C@H](O)[C@H]2O)C(C)(C)C1` (stereo partly drawn) [Example B6A, 2,2-Dimethyl-4-(methylamino)-cyclopent-1-yl 1-Thio-β-D-galactopyranoside] was tested, and the inhibition at 1000 µg/mL was at least 20%.
With `CC1CCC(NC2CC(S[C@@H]3O[C@H](CO)[C@H](O)[C@H](O)[C@H]3O)C(C)(C)C2)CC1` (stereo partly drawn) [Example B6L, 2,2-Dimethyl-4-(4-methylcyclohex-1-ylamino)-cyclopent-1-yl 1-Thio-β-D-galactopyranoside] the inhibition at 1000 µg/mL was at least 20%.
For `CC1CCC(NC2CC(S[C@@H]3O[C@H](CO)[C@H](O)[C@H](O)[C@H]3O)C(C)(C)C2)C1` (stereo partly drawn) [Example B6Q, 2,2-Dimethyl-4-(3-methylcyclopent-1-ylamino)-cyclopent-1-yl 1-Thio-β-D-galactopyranoside], the inhibition at 1000 µg/mL was at least 20%.
With `CC1CCCC(NC2CC(S[C@@H]3O[C@H](CO)[C@H](O)[C@H](O)[C@H]3O)C(C)(C)C2)C1` (stereo partly drawn) [Example B6T, 2,2-Dimethyl-4-(3-methylcyclohex-1-ylamino)-cyclopent-1-yl 1-Thio-β-D-galactopyranoside] the inhibition at 1000 µg/mL was at least 20%.
In the case of `CC(N)CC(C)S[C@@H]1O[C@H](CO)[C@H](O)[C@H](O)[C@H]1O` (stereo partly drawn) [Example B8, 4-Aminopent-2-yl 1-Thio-β-D-galactopyranoside], the inhibition at 1000 µg/mL is reported as at least 20%.
Compound `CC(=O)NC1CCCC1S[C@@H]1O[C@H](CO)[C@H](O)[C@H](O)[C@H]1O` (stereo partly drawn) [Example C1, 2-Acetamidocyclopent-1-yl 1-Thio-β-D-galactopyranoside] has an inhibition at 1000 µg/mL of under 20%.
With `CC(=O)NC(C)CC(S[C@@H]1O[C@H](CO)[C@H](O)[C@H](O)[C@H]1O)c1ccccc1` (stereo partly drawn) [Example C3, 3-Acetamido-1-phenylbut-1-yl 1-Thio-β-D-galactopyranoside] the inhibition at 1000 µg/mL was under 20%.
Work on `CC(=O)NC(C)CC(C)S[C@@H]1O[C@H](CO)[C@H](O)[C@H](O)[C@H]1O` (stereo partly drawn) [Example C8, 4-Acetamidopent-2-yl 1-Thio-β-D-galactopyranoside] yielded an inhibition at 1000 µg/mL of under 20%.
For `O=C(O)c1ccccc1C(=O)NC1CCCC1S[C@@H]1O[C@H](CO)[C@H](O)[C@H](O)[C@H]1O` (stereo partly drawn) [Example D1, 2-(2-Carboxybenzamido)cyclopent-1-yl 1-Thio-β-D-galactopyranoside], the inhibition at 1000 µg/mL was at least 20%.
`CC(CC(S[C@@H]1O[C@H](CO)[C@H](O)[C@H](O)[C@H]1O)c1ccccc1)NC(=O)c1ccccc1C(=O)O` (stereo partly drawn) [Example D3, 3-(2-Carboxybenzamido)-1-phenylbut-1-yl 1-Thio-β-D-galactopyranoside] showed an inhibition at 1000 µg/mL of under 20%.
`CC(CC(C)S[C@@H]1O[C@H](CO)[C@H](O)[C@H](O)[C@H]1O)NC(=O)c1ccccc1C(=O)O` (some centres unmarked) [Example D8] gave an inhibition at 1000 µg/mL of at least 20%.
For `O=C(O)CNC1CCCCC(S[C@@H]2O[C@H](CO)[C@H](O)[C@H](O)[C@H]2O)C1` (stereo partly drawn) [Example E5, Nα-[3-(1-Thio-β-D-galactopyranosyl)cyclohept-1-yl]glycine], the inhibition at 1000 µg/mL was under 20%.
In the case of `CC(CC(C)S[C@@H]1O[C@H](CO)[C@H](O)[C@H](O)[C@H]1O)NCC(=O)O` (stereo partly drawn) [Example E8, Nα-[4-(1-Thio-β-D-galactopyranosyl)pent-2-yl]glycine], the inhibition at 1000 µg/mL is reported as under 20%.
`CC1(C)CCC(NCC(=O)O)CC1S[C@@H]1O[C@H](CO)[C@H](O)[C@H](O)[C@H]1O` (stereo partly drawn) [Example E9, Nα-[4,4-Dimethyl-3-(1-thio-β-D-galactopyranosyl)-cyclohex-1-yl]glycine] was tested, and the inhibition at 1000 µg/mL was under 20%.
For `CC1(C)CC(NCCC(=O)O)CC1S[C@@H]1O[C@H](CO)[C@H](O)[C@H](O)[C@H]1O` (stereo partly drawn) [Example F6, Nβ-[4,4-Dimethyl-3-(1-thio-β-D-galactopyranosyl)-cyclopent-1-yl]-βalanine], the inhibition at 1000 µg/mL was under 20%.
With `CC1(C)CCC(NCCC(=O)O)CC1S[C@@H]1O[C@H](CO)[C@H](O)[C@H](O)[C@H]1O` (stereo partly drawn) [Example F9, Nβ-[4,4Dimethyl-3-(1-thio-β-D-galactopyranosyl)-cyclohex-1-yl]-β-alanime] the inhibition at 1000 µg/mL was under 20%.
`CC(C)C[C@H](NC(C)CC(S[C@@H]1O[C@H](CO)[C@H](O)[C@H](O)[C@H]1O)c1ccccc1)C(=O)O` (stereo partly drawn) [Example G3, Nα-[4-Phenyl-4-(1-thio-β-galactopyranosyl)but-2-yl]-L-leucine] showed an inhibition at 1000 µg/mL of under 20%.
In the case of `CC(C)C[C@H](NC1CCC(S[C@@H]2O[C@H](CO)[C@H](O)[C@H](O)[C@H]2O)C1)C(=O)O` (stereo partly drawn) [Example G7, Nα-[3-(1-Thio-β-D-galactopyranosyl)cyclopent-1-yl]-L-leucine], the inhibition at 1000 µg/mL is reported as under 20%.
With `CC(C)C[C@H](NC(C)CC(C)S[C@@H]1O[C@H](CO)[C@H](O)[C@H](O)[C@H]1O)C(=O)O` (stereo partly drawn) [Example G8, Nα-[4-(1-Thio-β-D-galactopyranosyl)pent-2-yl]-L-leucine] the inhibition at 1000 µg/mL was under 20%.
Work on `CC(C)C[C@H](NC1CCC(C)(C)C(S[C@@H]2O[C@H](CO)[C@H](O)[C@H](O)[C@H]2O)C1)C(=O)O` (stereo partly drawn) [Example G9, Nα-[4,4-Dimethyl-3-(1-thio-β-D-galactopyranosyl)-cyclohex-1-yl]-L-leucine] yielded an inhibition at 1000 µg/mL of under 20%.
Compound `CC(C)C[C@H](NC1CCCC(S[C@@H]2O[C@H](CO)[C@H](O)[C@H](O)[C@H]2O)C1)C(=O)O` (stereo partly drawn) [Example G10, Nα-[3-(1-Thio-β-D-galactopyranosyl)cyclohex-1-yl]-L-leucine] has an inhibition at 1000 µg/mL of under 20%.
With `CC(CC(S[C@@H]1O[C@H](CO)[C@H](O)[C@H](O)[C@H]1O)c1ccccc1)N[C@@H](Cc1c[nH]c2ccccc12)C(=O)O` (stereo partly drawn) [Example I3, Nα-[4-Phenyl-4-(1-thio-β-D-galactopyranosyl)but-2-yl]-L-tryptophan] the inhibition at 1000 µg/mL was at least 20%.
Work on `CC(CC(C)S[C@@H]1O[C@H](CO)[C@H](O)[C@H](O)[C@H]1O)N[C@@H](Cc1c[nH]c2ccccc12)C(=O)O` (stereo partly drawn) [Example I8, Nα-[4-(1-Thio-β-D-galactopyranosyl)pent-2-yl]-L-tryptophan] yielded an inhibition at 1000 µg/mL of under 20%.
In the case of `CC1(C)CCC(N[C@@H](Cc2c[nH]c3ccccc23)C(=O)O)CC1S[C@@H]1O[C@H](CO)[C@H](O)[C@H](O)[C@H]1O` (stereo partly drawn) [Example I9, Nα-[4,4-Dimethyl-3-(1-thio-β-D-galactopyranosyl)-cyclohex-1-yl]-L-tryptophan], the inhibition at 1000 µg/mL is reported as under 20%.
